Data: the Kinase Knowledgebase extract (Sharma et al. 2016)

Molecular target: CDK2 (human) (UniProt P24941)
Experiment: Enzyme Assay

Compound | IC50
COc1ccc(NC(=O)c2ccc(C(=O)Nc3ccc(-c4nnn[nH]4)cc3)s2)c(C)c1 | ≥ 40 µM
COc1ccc(C(=O)Nc2ccc(C(=O)N3CCC(Oc4cnccn4)CC3)o2)cc1 | ≥ 40 µM
O=C(Nc1ccc(-n2cncn2)cc1)c1ccc(C(=O)N2CCOCC2)s1 | ≥ 40 µM
O=C(Nc1ccccc1)c1ccc(C(=O)Nc2ccc(-n3cncn3)cc2)o1 | 1 to 40 µM
COc1ccc(C(=O)Nc2ccc(C(=O)N3CCC(c4ccncc4)C3)s2)c(C)c1 (centres undefined) | ≥ 40 µM
COc1ccc(NCc2ccc(C(=O)Nc3ccc(-n4cncn4)cc3)o2)c(C)c1 | ≥ 40 µM
Cc1ccsc1CNC(=O)c1ccc(C(=O)Nc2ccc(-n3cncn3)cc2)s1 | 1 to 40 µM
CC(CN(C)C)NC(=O)c1ccc(C(=O)Nc2ccc(-n3cncn3)cc2)s1 (centres undefined) | ≥ 40 µM
COc1ccc(C(=O)Nc2ccc(C(=O)N3CCC(c4ccncc4)C3)o2)c(C)c1 (centres undefined) | ≥ 40 µM
C[C@H](O)CNC(=O)c1ccc(C(=O)Nc2ccc(-n3cncn3)cc2)s1 | ≥ 40 µM
O=C(Nc1ccc(-n2cncn2)cc1)c1ccc(C(=O)N2CCN(C3CCCC3)CC2)s1 | ≥ 40 µM
CN1CCC(NC(=O)c2ccc(C(=O)Nc3ccc(-n4cncn4)c(F)c3)o2)CC1 | ≥ 40 µM
COc1ccc(C(=O)Nc2ccc(C(=O)N3CCC(Oc4cnccn4)CC3)o2)c(C)c1 | ≥ 40 µM
O=C(Nc1ccc(-n2cncn2)c(F)c1)c1ccc(C(=O)N2CCOCC2)o1 | ≥ 40 µM
CC(=O)N1CCC(NC(=O)c2ccc(C(=O)Nc3ccc(-n4cncn4)cc3)s2)CC1 | 1 to 40 µM
O=C(NCc1ccc2c(c1)CCO2)c1ccc(C(=O)Nc2ccc(-n3cncn3)cc2)s1 | ≥ 40 µM
COc1ccc(NC(=O)c2ccc(C(=O)Nc3ccc(-c4ncn(C)n4)cc3)s2)c(C)c1 | ≥ 40 µM
COc1ccc(C(=O)Nc2ccc(C(=O)N3CCC(c4ccccn4)C3)o2)c(C)c1 (centres undefined) | ≥ 40 µM
COc1ccc(C(=O)Nc2ccc(C(=O)Nc3ccc(-n4cncn4)cc3)s2)cc1 | 1 to 40 µM
COc1ccc(NC(=O)c2ccc(C(=O)Nc3ccc(Cn4ccnc4)cc3)s2)c(C)c1 | ≥ 40 µM

Compound | IC50
Cc1ccccc1NC(=O)c1ccc(C(=O)Nc2ccc(-n3cncn3)cc2)o1 | ≤ 1 µM
COc1ccc(NC(=O)c2ccc(C(=O)Nc3ccc(-n4cncn4)cc3)o2)c(C)c1 | ≤ 1 µM
Cn1nc(C2CC2)cc1NC(=O)c1ccc(C(=O)Nc2ccc(-n3cncn3)cc2)s1 | 1 to 40 µM
CN1CCN(C(=O)c2ccc(C(=O)Nc3ccc(-n4cncn4)cc3)s2)CC1 | ≥ 40 µM
COc1ccc(NC(=O)c2ccc(C(=O)Nc3ccc(-c4cnco4)cc3)s2)c(C)c1 | ≥ 40 µM
O=C(Nc1ccncc1)c1ccc(C(=O)Nc2ccc(-n3cncn3)cc2)o1 | 1 to 40 µM
O=C(NC[C@H]1CCCO1)c1ccc(C(=O)Nc2ccc(-n3cncn3)cc2)s1 | ≥ 40 µM
CN(C)CCNC(=O)c1ccc(C(=O)Nc2ccc(-n3cncn3)c(F)c2)o1 | ≥ 40 µM
CN1CCC(NC(=O)c2ccc(C(=O)Nc3ccc(-n4cncn4)cc3)s2)CC1 | ≥ 40 µM
COc1ccc(NC(=O)c2ccc(C(=O)Nc3ccc(-n4ccnc4)cc3)s2)c(C)c1 | ≥ 40 µM
CN1CCCC1CCNC(=O)c1ccc(C(=O)Nc2ccc(-n3cncn3)cc2)s1 (centres undefined) | ≥ 40 µM
O=C(Nc1ccc(-n2cncn2)cc1)c1ccc(C(=O)N2CCN(c3ccccc3)CC2)s1 | ≥ 40 µM
O=C(NCCc1c[nH]cn1)c1ccc(C(=O)Nc2ccc(-n3cncn3)cc2)s1 | ≥ 40 µM
O=C(NCCN1CCCC1)c1ccc(C(=O)Nc2ccc(-n3cncn3)cc2)s1 | 1 to 40 µM
COc1ccc(N(C)C(=O)c2ccc(C(=O)Nc3ccc(-n4cncn4)cc3)s2)cc1 | 1 to 40 µM
O=C(NCCN1CCNC1=O)c1ccc(C(=O)Nc2ccc(-n3cncn3)cc2)s1 | ≥ 40 µM
COC[C@H](C)NC(=O)c1ccc(C(=O)Nc2ccc(-n3cncn3)cc2)s1 | ≥ 40 µM
COc1ccc(C(=O)Nc2ccc(C(=O)Nc3ccc(-n4ccnc4)cc3)o2)c(C)c1 | ≥ 40 µM
COc1ccc(C(=O)Nc2ccc(C(=O)Nc3ccc(-n4cncn4)cc3)o2)cc1 | ≥ 40 µM
CN(C)C(=O)c1ccc(C(=O)Nc2ccc(-n3cncn3)c(F)c2)o1 | ≥ 40 µM

Compound | IC50
COc1ccc(NC(=O)c2ccc(C(=O)N3CCC(c4ccncc4)C3)s2)c(C)c1 (centres undefined) | 1 to 40 µM
COc1ccc(NC(=O)c2ccc(C(=O)N3CCC(Oc4cnccn4)CC3)s2)c(C)c1 | 1 to 40 µM
COc1ccc(NC(=O)c2ccc(C(=O)Nc3ccc(N4CCCCC4)cc3)s2)c(C)c1 | ≥ 40 µM
CN(Cc1ccco1)C(=O)c1ccc(C(=O)Nc2ccc(-n3cncn3)cc2)s1 | ≥ 40 µM
COc1ccc(NC(=O)c2ccc(C(=O)Nc3ccc(N4CCOCC4)nc3)s2)c(C)c1 | ≥ 40 µM
COc1ccc(NC(=O)c2ccc(C(=O)N3CCC(c4ccccn4)C3)s2)c(C)c1 (centres undefined) | 1 to 40 µM
CC(C)CNC(=O)c1ccc(C(=O)Nc2ccc(-n3cncn3)cc2)s1 | ≥ 40 µM
O=C(Nc1ccc(C(=O)Nc2ccc(-n3cncn3)cc2)s1)c1ccncc1 | ≥ 40 µM
O=C(Nc1ccc(-n2cncn2)cc1)c1ccc(C(=O)N[C@@H]2CCNC2)s1 | ≥ 40 µM
Cc1cc(OCCN2CCN(C)CC2)ccc1NC(=O)c1ccc(C(=O)Nc2ccc(-n3cncn3)cc2)s1 | ≤ 1 µM
CCCCN(C)C(=O)c1ccc(C(=O)Nc2ccc(-n3cncn3)cc2)s1 | ≥ 40 µM
COc1ccc(NC(=O)c2ccc(C(=O)Nc3ccc(-n4cccn4)cc3)s2)c(C)c1 | ≥ 40 µM
COc1ccc(NC(=O)c2ccc(C(=O)Nc3ccc(N4CCN(C)CC4)cc3)s2)c(C)c1 | ≥ 40 µM
O=C(Nc1ccc(-n2cncn2)cc1)c1ccc(C(=O)NC2CCC2)s1 | ≥ 40 µM
COc1ccc(NC(=O)c2ccc(C(=O)Nc3ccc(-c4nnc[nH]4)cc3)s2)c(C)c1 | ≤ 1 µM
COc1ccc(NC(=O)c2ccc(C(=O)Nc3ccc4scnc4c3)s2)c(C)c1 | ≥ 40 µM
Cc1cc(OCCN2CCOCC2)ccc1NC(=O)c1ccc(C(=O)Nc2ccc(-n3cncn3)cc2)s1 | ≤ 1 µM
CN(C)CCNC(=O)c1ccc(C(=O)Nc2ccc(-n3cncn3)cc2)s1 | ≥ 40 µM
C[C@H](NC(=O)c1ccc(C(=O)Nc2ccc(-n3cncn3)c(F)c2)o1)C1CCCCC1 | ≤ 1 µM

Continued, values first:

IC50 | Compound
≤ 1 µM | O=C(Nc1ccc(-n2cncn2)c(F)c1)c1ccc(C(=O)Nc2ccccc2F)s1
≤ 1 µM | O=C(Nc1ccc(-n2cncn2)c(F)c1)c1ccc(C(=O)Nc2ccccc2Cl)s1
≥ 40 µM | O=C(Nc1ccccc1)c1ccc(C(=O)Nc2ccc(-n3cncn3)cc2)s1
1 to 40 µM | Cc1cc(CN(C)C)ccc1NC(=O)c1ccc(C(=O)Nc2ccc(-n3cncn3)cc2)s1
≥ 40 µM | CN(C(=O)c1ccc(C(=O)Nc2ccc(-n3cncn3)cc2)s1)c1ccccc1
1 to 40 µM | COC(=O)c1cc(OC)ccc1NC(=O)c1ccc(C(=O)Nc2ccc(-n3cncn3)cc2)s1
≥ 40 µM | Cn1nc(-c2cccs2)cc1NC(=O)c1ccc(C(=O)Nc2ccc(-n3cncn3)cc2)s1
≥ 40 µM | CN(Cc1ccccc1)C(=O)c1ccc(C(=O)Nc2ccc(-n3cncn3)cc2)s1
1 to 40 µM | COc1ccc(NC(=O)c2ccc(C(=O)Nc3ccc(-n4cncn4)cc3)s2)c(C(=O)O)c1
1 to 40 µM | COc1ccc(NC(=O)c2ccc(C(=O)Nc3ccc(-n4cncn4)cc3)s2)cc1Cl
1 to 40 µM | O=C(Nc1ccc(-n2cncn2)cc1)c1ccc(C(=O)Nc2nc3ccccc3s2)s1
≥ 40 µM | Cc1cc(C)nc(NC(=O)c2ccc(C(=O)Nc3ccc(-n4cncn4)cc3)s2)c1
≥ 40 µM | O=C(NCCc1ccccn1)c1ccc(C(=O)Nc2ccc(-n3cncn3)cc2)s1
1 to 40 µM | CNCc1ccc(NC(=O)c2ccc(C(=O)Nc3ccc(-n4cncn4)cc3)s2)c(C)c1
≥ 40 µM | O=C(Nc1ccc(-n2cncn2)cc1)c1ccc(C(=O)Nc2ccccn2)s1
1 to 40 µM | Cn1nc(-c2ccccc2)cc1NC(=O)c1ccc(C(=O)Nc2ccc(-n3cncn3)cc2)s1
≤ 1 µM | Cc1ccccc1C(=O)Nc1ccc(C(=O)Nc2ccc(-n3cncn3)cc2)s1
≥ 40 µM | O=C(Nc1ccc(-n2cncn2)cc1)c1ccc(C(=O)Nc2nccs2)s1
≥ 40 µM | O=C(Nc1ccc(-n2cncn2)c(F)c1)c1ccc(C(=O)Nc2ccccc2OC2CCCCC2)s1
≥ 40 µM | O=C(Nc1ccc(-n2cncn2)cc1)c1ccc(C(=O)Nc2cc(-c3ccco3)n[nH]2)s1

IC50 | Compound
≥ 40 µM | O=C(Nc1ccc(-n2cncn2)cc1)c1ccc(C(=O)Nc2cccc(O)c2)s1
1 to 40 µM | COc1ccc(Cl)cc1NC(=O)c1ccc(C(=O)Nc2ccc(-n3cncn3)cc2)s1
≤ 1 µM | Cc1cc(CN2CCOCC2)ccc1NC(=O)c1ccc(C(=O)Nc2ccc(-n3cncn3)c(F)c2)s1
≥ 40 µM | O=C(Nc1ccc(-n2cncn2)c(F)c1)c1ccc(C(=O)Nc2ccccc2Oc2ccccc2)s1
≤ 1 µM | Cc1ccccc1NC(=O)c1ccc(C(=O)Nc2ccc(-n3cncn3)cc2)s1
≥ 40 µM | O=C(NCCc1ccccc1)c1ccc(C(=O)Nc2ccc(-n3cncn3)cc2)s1
≥ 40 µM | Cn1nc(-c2ccc(Cl)cc2)cc1NC(=O)c1ccc(C(=O)Nc2ccc(-n3cncn3)cc2)s1
≥ 40 µM | O=C(Nc1ccc(-n2cncn2)cc1)c1ccc(C(=O)Nc2cccc(-c3cnco3)c2)s1
≤ 1 µM | COc1ccc(NC(=O)c2ccc(C(=O)Nc3ccc(-n4cncn4)c(F)c3)o2)c(C)c1
≥ 40 µM | O=C(Nc1ccc(-n2cncn2)c(F)c1)c1ccc(C(=O)Nc2ccccc2OCc2ccccc2)s1
≥ 40 µM | Cc1cc(NC(=O)c2ccc(C(=O)Nc3ccc(-n4cncn4)cc3)s2)ccc1F
≥ 40 µM | COc1ccc(NC(=O)c2ccc(C(=O)Nc3ccc(-n4cncn4)cc3)s2)cc1O
≤ 1 µM | COc1ccc(NC(=O)c2ccc(C(=O)Nc3ccc(-n4cncn4)c(F)c3)s2)c(C)c1
≥ 40 µM | O=C(NCc1nc2ccccc2[nH]1)c1ccc(C(=O)Nc2ccc(-n3cncn3)cc2)s1
1 to 40 µM | Cc1cc(NC(=O)c2ccc(C(=O)Nc3ccc(-n4cncn4)cc3)s2)n(C)n1
≥ 40 µM | CCOc1ccccc1NC(=O)c1ccc(C(=O)Nc2ccc(-n3cncn3)c(F)c2)s1
≥ 40 µM | O=C(NCc1cccnc1)c1ccc(C(=O)Nc2ccc(-n3cncn3)cc2)s1
≥ 40 µM | Cc1cnc(NC(=O)c2ccc(C(=O)Nc3ccc(-n4cncn4)cc3)s2)s1
1 to 40 µM | Cc1cc(NCCN(C)C)ccc1NC(=O)c1ccc(C(=O)Nc2ccc(-n3cncn3)cc2)s1
≤ 1 µM | Cc1cc(Cn2ccnc2)ccc1NC(=O)c1ccc(C(=O)Nc2ccc(-n3cncn3)c(F)c2)s1
